From US4279915A, “Method of treatment using new leurosine derivatives” (priority 1973, dated 1981)

How the values were obtained:
[1] = system: S 37 ascites sarcoma; test: antitumor effect on S 37 ascites sarcoma; assay type: in vivo
Text: (§1) The treatment extends the life span of animals suffering from L-1210 lymphoid leukemia, s37 ascites sarcoma or Yoshida ascites sarcoma by about 150 to 250 percent.
(§2) EFFECT OF F-LEUROSINE ON ASCITIC TUMORS

[2] = system: solid tumors; test: clinical treatment of patients with solid tumors (Example B); assay type: in vivo, human; conditions: for decrease of prothrombin index and activity: by the 7th day of treatment
Protocol: N-formyl-leurosine was administered in form of i.v. injection as single treatment or in 5 and 2×5 day long periods continually to exclusively patients with solid tumors.
Simultaneously adjuvant therapy was applied (analgesics, antibiotics, cardiac drugs, roborants) if necessary.
Following single treatments primarily the effect on blood picture, and especially on leukocyte count was observed. In case of higher total doses given continuously for 5 or 10 days, liver function, enzymes, serum creatinine, uric acid level were also determined. The neurological condition of the patients was also controlled.

[3] = system: rhabdomyo-sarcoma; test: growth inhibition of induced and transplanted rhabdomyo-sarcoma; assay type: in vivo
[4] = system: L 1210 leukemia; test: effect on L 1210 i.p. leukemia; assay type: in vivo, BDF1 mice
Text: as §1
L 1210 I.P. LEUKEMIA ON BDF1 MICE

[5] = system: Ehrlich ascites carcinoma; test: antitumor effect on Ehrlich ascites carcinoma; assay type: in vivo, mice
Text: (§3) This compound provides complete recovery or a 300 percent extension of life span in 50 to 70 percent of the cases, in tests on mice inoculated with Ehrlich ascites carcinoma or NK/Ly lymphoma.
as §2

[6] = system: leukemia; test: Phase I trial, escalation and evaluation period; assay type: in vivo, human; conditions: up to 0.05 mg/kg/day i.v. six consecutive days, escalation period
Protocol: Fourteen patients were treated. The patient selection met the following criteria: (a) all types of leukemia, (b) all patients previously treated without success, (e) no X-ray or chemotherapy was administered four weeks prior to therapy, (d) at least eight weeks follow-up. In the escalation period 0.01 mg/kg/day i.v. was given five consecutive days as initial dose.
DOSAGE OF F-LEUROSINE IN PHASE I TRIAL
In addition, eight patients were added to the group treated on the basis of this schedule.

[7] = system: Swiss mice; test: acute toxicity in Swiss mice; assay type: in vivo, mouse
Text: (§4) ACUTE TOXICITY IN SWISS MICE
(§5) Table III lists the comparative toxicological data concerning Vincristine, Vinblastine and F-leurosine. The new analogue is approximately 7 times less toxic than Vincristine and 4 times less toxic than Vinblastine in acute rodent experiments.

[8] = acute toxicity in Swiss mice; assay type: in vivo, mouse; conditions: mouse, in vivo, Swiss mice
Text: as §4, §5

[9] = system: NK/Ly lymphoma; test: antitumor effect on NK/Ly lymphoma; assay type: in vivo, mice
Text: as §3, §2

[10] = system: lymphoma, leukemia and Hodgkins disease; test: antitumor activity; assay type: in vivo
[11] = tolerability and therapeutical range in animal tests; assay type: in vivo
Protocol: A dose of 0.3 to 5.0 mg./kg. of body weight can also be used in human therapy, although the dosage can be as low as 0.01 mg./kg. daily.

[12] = system: Novikoff; test: antitumor effect on Novikoff ascitic tumor; assay type: in vivo
Text: |EFFECT OF F-LEUROSINE ON ASCITIC TUMORS

[13] = system: Harding Passey melanoma; test: growth inhibition of Harding Passey melanoma; assay type: in vivo
[14] = 8 × 2.5 mg/kg i.p. 48 hr interval
[15] = 8 × 2.5 mg/kg i.p. 72 hr interval
[16] = 8 × 5.0 mg/kg i.p. 48 hr interval
[17] = 8 × 5.0 mg/kg i.p. 72 hr interval
[18] = 8 × 5.0 mg/kg i.p. 96 hr interval
[19] = 8 × 7.5 mg/kg i.p. 72 hr interval
[20] = 8 × 7.5 mg/kg i.p. 96 hr interval
[21] = 8 × 10.0 mg/kg i.p. 48 hr interval
[22] = 8 × 10.0 mg/kg i.p. 72 hr interval
[23] = 8 × 10.0 mg/kg i.p. 96 hr interval
[24] = 4 × 0.6 mg/kg i.p. each other day
[25] = 4 × 3.0 mg/kg i.p. each other day

Structure (SMILES): CCC12CN3CCc4c([nH]c5ccccc45)[C@@](C(=O)OC)(c4cc5c(cc4OC)N(C=O)[C@H]4[C@@](O)(C(=O)OC)[C@H](OC(C)=O)[C@]6(CC)C=CCN7CC[C@]54[C@@H]76)C[C@@H](C3)C1O2 (some centres unmarked) [N-formyl-leurosine]
- Tumor free ([1]; 4 × 2.5 mg/kg i.p. daily): 4/6
- Tumor inhibition ([1]; 4 × 2.5 mg/kg i.p. daily): 100
- Survival ([1]; 8 × 1.0 mg/kg i.p. daily): 268
- Tumor free ([1]; 8 × 1.0 mg/kg i.p. daily): 1/6
- extension of life span ([1]; s37 ascites sarcoma, about): 150-250%
- tumor growth: progress during the treatment ([2]; 0.018 mg/kg during 2×5 days, one case): express progress during the treatment
- tumor growth: regression by X-ray and touching ([2]; 0.030 mg/kg during 2×5 days, one case): slight regression
- leukocyte count change ([2]; between the 3rd and 5th days): decreased again
- leukocyte count level ([2]; between the 3rd and 5th days, remained over): over 3000
- leukocyte count ([2]; between the 9th and 14th days): returns to the initial value
- tumor growth: other cases ([2]; continuous administration): No changes were found in other cases
- effect on tumor growth ([2]; continuous administration of 0.018-0.035 mg/kg doses): some effect was observed
- qualitative blood picture ([2]; dose level presently used): no change was shown
- levels of enzymes (serum alk, phosphatase, SGOT, SGPT) ([2]; during the treatment): did not essentially change
- leukocyte count ([2]; first 48 hours): increased
- liver function, urinalysis, serum creatinine and uric acid levels ([2]; human, in vivo): no changes or signs indicating toxicity were found
- neurological side-effects ([2]; human, in vivo): not observed
- decrease of prothrombin index and activity ([2]; one case): 50%
- prothrombin-time, increase ([2]; six cases): increased in three cases out of six
- prothrombin time, decrease ([2]; two cases): very slightly decreased
- decrease of prothrombin index and activity ([2]; two cases): 37%
- growth inhibition [3]: remarkable growth inhibition
- Mean survival ([4]; 8 × 1.25 mg/kg i.p. daily): 27.7 days
- Survival ([4]; 8 × 1.25 mg/kg i.p. daily): 131
- Mean survival [4, 14]: 22.4 days
- Survival [4, 14]: 137
- Mean survival [4, 15]: 12.0 days
- Survival [4, 15]: 48
- Mean survival ([4]; 8 × 2.5 mg/kg i.p. daily): 25.0 days
- Survival ([4]; 8 × 2.5 mg/kg i.p. daily): 127
- Mean survival [4, 16]: 24.0 days
- Survival [4, 16]: 126
- Mean survival [4, 17]: 22.1 days
- Survival [4, 17]: 123
- Mean survival [4, 18]: 10.8 days
- Survival [4, 18]: 35
- Mean survival ([4]; 8 × 5.0 mg/kg i.p. daily): 23.0 days
- Survival ([4]; 8 × 5.0 mg/kg i.p. daily): 109
- Mean survival [4, 19]: 20.2 days
- Survival [4, 19]: 117
- Mean survival [4, 20]: 19.2 days
- Survival [4, 20]: 95
- Mean survival ([4]; 8 × 7.5 mg/kg i.p. daily): 19.5 days
- toxicity mark in Survival column ([4]; 8 × 7.5 mg/kg i.p. daily): tox
- Survival ([4]; 8 × 7.5 mg/kg i.p. daily, tox): 56
- Mean survival [4, 21]: 21.7 days
- toxicity mark in Survival column [4, 21]: tox
- Survival ([4]; 8 × 10.0 mg/kg i.p. 48 hr interval, tox): 60
- Mean survival [4, 22]: 22.3 days
- Survival [4, 22]: 145
- Mean survival [4, 23]: 23.6 days
- Survival [4, 23]: 136
- potency of small daily doses vs high doses twice weekly ([4]; BDF1 mice): equally potent
- sensitivity of L-1210 leukemia to the treatment ([4]; BDF1 mice): sensitive to the treatment
- extension of life span ([4]; L-1210 lymphoid leukemia, about): 150-250%
- extension of life span [5]: 300%
- Survival [5, 24]: 288
- Tumor free [5, 24]: 7/10
- Survival ([5]; 7 × 3.0 mg/kg i.p. daily): 244
- Tumor free ([5]; 7 × 3.0 mg/kg i.p. daily): 3/10
- Survival ([5]; 24 × 0.15 mg/kg i.p. daily): 118
- Tumor free ([5]; 24 × 0.15 mg/kg i.p. daily): 3/10
- antitumor activity [6]: striking antitumor activity
- signs of toxicity [6]: without signs of toxicity
- times less toxic than Vinblastine ([7]; acute rodent experiments): ~4 times
- times less toxic than Vincristine ([7]; acute rodent experiments): approximately 7 times
- signs of neurotoxicity ([7]; even subluthal doses, experimental animals): did not show any signs of neurotoxicity
- toxicity relative to vinblastine ([7]; i.p., on mice (text b8)): about five times less toxic than vinblastine
- toxicity relative to vincristine ([7]; i.p., on mice (text b8)): about ten times less toxic than vincristine
- LD50 ([8]; ip, 1 x i.p.): 28.8 mg/kg
- LD50 ([8]; iv, 1 x i.v.): 32.5 mg/kg
- extension of life span [9]: 300%
- Survival ([9]; 8 × 0.5 mg/kg i.p. daily): 250
- Tumor free ([9]; 8 × 0.5 mg/kg i.p. daily): 2/10
- antitumor activity [10]: favorable antitumor activity
- side-effects ([11]; 0.3 to 5.0 mg./kg. for prolonged periods, animals): without causing side-effects characteristic of and unavoidable with the known vinca-alkaloids
- therapeutical range compared with vincristine ([11]; animal tests): somewhat similar to that of vincristine
- therapeutical range compared with vinleurosine ([11]; animal tests): about four times broader than that of vinleurosine
- Survival [12, 25]: 196
- Tumor free [12, 25]: 1/6
- Survival ([12]; 6 × 2.0 mg/kg i.p. daily): 166
- Tumor free ([12]; 6 × 2.0 mg/kg i.p. daily): 0/6
- growth inhibition [13]: remarkable growth inhibition
